Laboratory results as given in the NIST ThermoML archive (doi:10.1021/je100361s).
± gives the expanded uncertainty stated by the source.

Conditions: 101.33 kPa, Liquid, Shanghai Precision & Scientific Instrument Co., LTD (DDS-307)

With `CCCCO` [butan-1-ol] as the compound, how does the electrical conductivity (298.15 K) read?
The electrical conductivity was 4.4e-05 ± 2.6e-06 S/m.

And the electrical conductivity (303.15 K)?
The electrical conductivity was 5.55e-05 ± 3.3e-06 S/m.

What about the electrical conductivity (308.15 K) of the same compound?
Its electrical conductivity is 6.58e-05 ± 4e-06 S/m.

What about the electrical conductivity (313.15 K) of the same compound?
The electrical conductivity was 6.9e-05 ± 4.1e-06 S/m.

What about the electrical conductivity (318.15 K) of the same compound?
The electrical conductivity was 8e-05 ± 4.8e-06 S/m.

What does the source list for `CCO` [ethanol]?
electrical conductivity (298.15 K): 0.000413 ± 2.5e-05 S/m; electrical conductivity (303.15 K): 0.000504 ± 3e-05 S/m; electrical conductivity (308.15 K): 0.000584 ± 3.5e-05 S/m; electrical conductivity (313.15 K): 0.000644 ± 3.9e-05 S/m; electrical conductivity (318.15 K): 0.000711 ± 4.3e-05 S/m

Which results are given for `CC(C)O` [propan-2-ol]?
electrical conductivity (298.15 K): 5.2e-05 ± 3.1e-06 S/m; electrical conductivity (303.15 K): 7e-05 ± 4.2e-06 S/m; electrical conductivity (308.15 K): 7.5e-05 ± 4.5e-06 S/m; electrical conductivity (313.15 K): 8.08e-05 ± 4.9e-06 S/m; electrical conductivity (318.15 K): 8.43e-05 ± 5.1e-06 S/m

Which electrical conductivity (303.15 K) does the source give for `O` [water] here?
The electrical conductivity was 0.00287 ± 0.00017 S/m.

And the electrical conductivity (308.15 K)?
Its electrical conductivity is 0.00323 ± 0.00019 S/m.

What about the electrical conductivity (313.15 K) of the same compound?
Its electrical conductivity is 0.00349 ± 0.00021 S/m.

And the electrical conductivity (318.15 K)?
Its electrical conductivity is 0.00375 ± 0.00022 S/m.
